“And” between values parts separate entries of the source, which are not always exact repeats. Equal values may be shown once.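 All cell lines were grown in 96-well plates and treated with compound for 48 hours. GI50 is the concentration that inhibits growth by half. Definition used: TGI = concentration required for complete inhibition of growth.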
What was measured:
Experiment in all cases: NCI tumour cell line growth inhibition, 48 h
[1] = system: OVCAR-4 ovarian
[2] = system: CCRF-CEM leukemia
[3] = system: IGROV1 ovarian
[4] = system: SK-MEL-28 melanoma
[5] = system: SNB-75 CNS
[6] = system: A498 renal
[7] = system: SW-620 colon
[8] = system: UACC-257 melanoma
[9] = system: SK-OV-3 ovarian
[10] = system: RXF 393 renal

CC1OC(O[C@@H]2C=C3CC[C@@H]4[C@H](CC[C@]5(C)[C@@H](c6ccc(=O)oc6)CC[C@]45O)[C@@]3(C)CC2)C(O)C(OC2OC(CO)C(O)C(O)C2O)C1O (stereo partly drawn)
TGI [1]: 0.00798 µM
TGI [2]: 0.133 µM
TGI [3]: 0.0219 µM and 0.0562 µM
TGI [4]: 0.0867 µM
GI50 [5]: 0.000974 µM
TGI [5]: 0.0587 µM and 0.0407 µM
TGI [6]: 0.0825 µM
TGI [7]: 0.0348 µM and 0.0288 µM
GI50 [8]: 0.00126 µM
TGI [8]: 0.0441 µM and 0.0265 µM

COc1ccc([I+]c2ccc(OC)cc2)cc1
GI50 [1]: 3.33 µM
TGI [1]: > 100 µM
TGI [9]: > 100 µM
GI50 [2]: 4.98 µM
TGI [2]: > 100 µM
GI50 [3]: 15.7 µM
TGI [3]: > 100 µM
GI50 [4]: 20.6 µM
TGI [4]: > 100 µM
GI50 [10]: 27.3 µM
TGI [10]: > 100 µM
GI50 [5]: 14.9 µM
TGI [5]: > 100 µM
GI50 [6]: 5.52 µM
TGI [6]: > 100 µM
GI50 [7]: 6.66 µM
TGI [7]: > 100 µM
TGI [8]: > 100 µM

COC(=O)C12Oc3ccc(-c4ccc5c(c4O)C(O)=C4C(=O)CC(C)C(O)C4(C(=O)OC)O5)c(O)c3C(O)=C1C(=O)CC(C)C2O (stereo not drawn)
TGI [1]: > 100 µM
TGI [9]: > 82.1 µM
TGI [2]: 0.0848 µM
TGI [3]: > 100 µM
TGI [4]: 0.741 µM
TGI [10]: 0.935 µM
TGI [5]: 2.92 µM
TGI [6]: 1.81 µM
TGI [7]: > 100 µM
TGI [8]: 1.34 µM

O=C1C(=C([O-])c2ccccc2)C(=O)c2ccccc21.O=C1C(=C([O-])c2ccccc2)C(=O)c2ccccc21.[Ni+2]
GI50 [1]: 61.6 µM
TGI [1]: > 100 µM
GI50 [9]: 23.1 µM
TGI [9]: 98.4 µM
GI50 [2]: 54.7 µM
TGI [2]: > 100 µM
GI50 [3]: 48.2 µM
TGI [3]: > 100 µM
GI50 [4]: 62.2 µM
TGI [4]: > 100 µM
GI50 [10]: 48.8 µM
TGI [10]: > 100 µM
GI50 [5]: 35.2 µM
TGI [5]: > 100 µM
GI50 [7]: 58.9 µM
TGI [7]: > 100 µM
GI50 [8]: 83.3 µM
TGI [8]: > 100 µM

COc1cc2c[n+](C)c3c4cc(OC)c(OCc5ccccc5)cc4c(OCc4ccccc4)cc3c2cc1OC
TGI [1]: > 55 µM
TGI [9]: > 52.8 µM
TGI [2]: 72.4 µM
TGI [3]: 13.2 µM
TGI [4]: 20.2 µM
TGI [10]: 41.1 µM
TGI [5]: 22.6 µM
TGI [6]: > 100 µM
TGI [7]: 20.5 µM
TGI [8]: 14.4 µM

O=S(O)c1cc(Cl)c(O)c(Cl)c1
TGI [1]: > 100 µM
TGI [9]: > 100 µM
TGI [2]: > 100 µM
TGI [4]: > 100 µM
TGI [10]: > 100 µM
TGI [5]: > 100 µM
TGI [6]: > 100 µM
TGI [8]: > 100 µM

CC(=O)OCC1OC(N=[N+]=[N-])C(OC(C)=O)C(OC(C)=O)C1OC1OC(COC(C)=O)C(OC(C)=O)C(OC(C)=O)C1OC(C)=O (stereo not drawn)
TGI [1]: > 100 µM
TGI [9]: > 100 µM
TGI [2]: > 100 µM
TGI [3]: > 100 µM
TGI [4]: > 100 µM
TGI [10]: > 100 µM
TGI [5]: 60.8 µM
TGI [6]: > 100 µM
TGI [7]: > 100 µM
TGI [8]: > 100 µM

C=C1CCOC2(C(O)C(C)(O)CO)NC(=O)C1(O)NC2=O (stereo not drawn)
TGI [1]: > 100 µM
TGI [9]: > 100 µM
TGI [2]: > 100 µM
TGI [3]: > 100 µM
TGI [4]: > 100 µM
TGI [10]: > 100 µM
TGI [5]: > 100 µM
TGI [6]: > 100 µM
TGI [7]: > 100 µM
TGI [8]: > 100 µM

COC(=O)c1c(O)ccc2c1c1c(n2Cc2cccc(C)c2)C(=O)c2ccccc2C1
TGI [1]: 25.3 µM
TGI [9]: > 75 µM
TGI [2]: 36.8 µM
TGI [3]: > 75 µM
TGI [4]: 0.71 µM
TGI [10]: 30 µM
TGI [6]: > 75 µM
TGI [7]: > 75 µM
TGI [8]: > 75 µM

C/C(=N\NC(N)=S)c1nc2ncccc2[nH]1
TGI [1]: > 100 µM
TGI [9]: > 100 µM
TGI [2]: > 100 µM
TGI [3]: > 100 µM
TGI [4]: > 100 µM
TGI [10]: > 100 µM
TGI [5]: > 100 µM
TGI [6]: > 100 µM
TGI [7]: > 100 µM
TGI [8]: > 100 µM

COc1cc(O)c(Cc2ccccc2O)c(O)c1C(=O)CCc1ccccc1
TGI [1]: 18.5 µM
TGI [9]: 18.2 µM
TGI [2]: 22.5 µM
TGI [3]: 29.8 µM
TGI [4]: 27.2 µM
TGI [10]: 18.9 µM
TGI [5]: 19.7 µM
TGI [6]: 14.4 µM
TGI [7]: 29.4 µM
TGI [8]: 16.1 µM

Cc1cc(O)c2c(c1)C(C1c3cccc(O)c3C(=O)c3c(O)cc(C)cc31)c1cccc(O)c1C2=O (stereo not drawn)
TGI [1]: 5.1 µM
TGI [9]: 1.69 µM
TGI [2]: 10.1 µM
TGI [3]: 4.56 µM
TGI [4]: 12.6 µM
TGI [10]: 0.861 µM
TGI [5]: 0.855 µM
TGI [6]: 4.53 µM
TGI [7]: 12.9 µM
TGI [8]: 1.25 µM

Cn1c(=O)c2[nH]c(SC/C(=N/O)c3ccc(Br)cc3)nc2n(C)c1=O
GI50 [2]: 14.3 µM
TGI [2]: 57.1 µM
GI50 [3]: 2.27 µM
TGI [3]: 5.55 µM
GI50 [10]: 2.05 µM
TGI [10]: 3.76 µM
GI50 [5]: 2.04 µM
TGI [5]: 5.07 µM
GI50 [7]: > 100 µM
TGI [7]: > 100 µM

COc1ccc2c3/c(=C\c4ccc(N(C)C)cc4)c4ccccc4n3[n+](C)c2c1
GI50 [1]: 0.987 µM
TGI [1]: 6.46 µM
GI50 [9]: 1.04 µM
TGI [9]: 2.57 µM
GI50 [2]: 0.051 µM
TGI [2]: 2.09 µM
GI50 [3]: 0.24 µM
TGI [3]: > 100 µM
GI50 [4]: 0.173 µM
TGI [4]: 2.27 µM
GI50 [10]: 0.0603 µM
TGI [10]: 1.04 µM
GI50 [5]: 0.578 µM
TGI [5]: 4.18 µM
GI50 [6]: 0.371 µM
TGI [6]: 7.37 µM
GI50 [7]: 0.0438 µM
TGI [7]: > 100 µM
GI50 [8]: 0.0346 µM
TGI [8]: 0.424 µM
